Experimental data as given in US8796303B2, “Imidazo[2,1-G][1,7]naphthyridines for treating respiratory syncytial virus infections” (Biota Scientific Management Pty Ltd., priority 2010, dated 2014).
Values after ≈ are worked out from the molar mass of the structure shown. Like-named read-outs stand apart in the source and are kept apart here.

Key:
RSV A2 = assay: RSV antiviral CPE assay in HEp2 cells (MTT); type: cell-based, respiratory syncytial virus; details: for activity compared with the 3-substituted isoxazol-4-yls of the present invention: comparative RSV activity; for EC50: human respiratory syncytial virus, HEp-2, 120 h, HEp2 cells, RSV A2 moi ~0.01, 5 days, CPE by MTT
Description: Compounds of the invention were tested for their antiviral activity against respiratory syncytial virus. Cytopathic effect (CPE) assays were performed essentially as described in the literature (see for example Watanabe et al, 1994, J. Virological Methods, 48:257). Serial dilutions of the test compounds were made in 96 well plates. HEp2 cells (1.0×10^4 cells/well) were infected with RSV at a low multiplicity of infection (e.g. RSV A2 at an moi of ˜0.01) and added to plates to assess antiviral activity. Uninfected HEp2 cells were used to assess compound cytotoxicity. Assays were incubated for 5 days at 37° C. in a 5% CO2 atmosphere. The extent of CPE was determined via metabolism of the vital dye 3-(4,5-dimethylthiaxol-2-yl)-2,5-diphenyltetrazolium bromide (MTT). MTT (1 mg/ml) was added to each well and plates incubated for 2 hours incubation at 37° C. Wells were aspirated, iso-propanol (200 μL) was added and absorbance values read at 540/650 nm. Compound concentrations that inhibited CPE by 50% (EC50) and developed cytotoxicity (CC50) were calculated using non-linear regression analysis. The CC50 values of the compounds tested were determined to be >5000 nM.

[1] = Aqueous solubility by laser nephelometry; type: physicochemical; details: for solubility compared with the 3-substituted isoxazol-4-yls of the present invention: comparative solubility; for solubility at 30 min: kinetic from dmso stock, 1% DMSO, 30 minute incubation at 25° C., range 1.6-100
Description: Test compounds prepared in DMSO were screened in duplicate over a range of concentrations (1.6-100 ug/mL) in different aqueous media (for example pH2 or pH6.5 buffers which are relevant to the stomach and upper regions of the small intestine). Test compounds were serially diluted in 100% DMSO ranging from 10-0.16 mg/mL. These diluted compounds were then added to test plates (UV Star Griener 96 well plates) containing assay buffers with a further 1:100 dilution keeping a constant 1% DMSO concentration across the plate.

[2] = pH 2, simulated gastric fluid, pH2 buffer, read-out: Solubility at pH2
[3] = pH 6.5, aqueous buffer, pH6.5 buffer, read-out: Solubility at pH6.5

SMILES	EC50 (RSV A2) [nM]	solubility compared with the 3-substituted isoxazol-4-yls of the present invention [1]	solubility at 30 min [1, 2] [µg/mL]	solubility at 30 min [1, 3] [µg/mL]	activity compared with the 3-substituted isoxazol-4-yls of the present invention (RSV A2)	drop in activity against the 3-substituted isoxazol-4-yl compound of example 4 (RSV A2; RSV A2 antiviral activity, compared with example 4)
O=C(c1ccno1)N1CCN2C(=O)c3cccnc3CC12c1ccc(Cl)cc1 (stereo not drawn) [Compound 1-100, reference compound]	560	less soluble			less active	
Cc1nocc1C(=O)N1CCN2C(=O)c3ncccc3CC12c1ccc(F)cc1 (stereo not drawn) [Compound 4, 10a-(4-fluorophenyl)-1-[(3-methyl-1,2-oxazol-4-yl)carbonyl]-2,3,10,10a-tetrahydroimidazo[2,1-g][1,7]naphthyridin-5(1H)-one]	27.5		> 100	> 100		
Cc1cc(C23Cc4nccnc4C(=O)N2CCN3C(=O)c2conc2C)ccc1F (stereo not drawn) [Compound 9, 5a-(4-fluoro-3-methylphenyl)-6-[(3-methyl-1,2-oxazol-4-yl)carbonyl]-5a,6,7,8-tetrahydroimidazo[1′,2′:1,6]pyrido[3,4-b]pyrazin-10(5H)-one]	9		50 to 100 (≈ 123 to 245 µM)	> 100		
Cc1oncc1C(=O)N1CCN2C(=O)c3ncccc3CC12c1ccc(F)cc1 (stereo not drawn) [Compound A, reference compound]	276					ten-fold drop in activity
Cc1nocc1C(=O)N1CCN2C(=O)c3ncccc3CC12c1ccc(F)c(F)c1 (stereo not drawn) [Compound 7, 10a-(3,4-difluorophenyl)-1-[(3-methyl-1,2-oxazol-4-yl)carbonyl]-2,3,10,10a-tetrahydroimidazo[2,1-g][1,7]naphthyridin-5(1H)-one]	35		25 to 50 (≈ 60.9 to 122 µM)	50 to 100 (≈ 122 to 244 µM)		
O=C(c1ccno1)N1CCN2C(=O)c3cccc(F)c3CC12c1ccc(Cl)cc1 (stereo not drawn) [Compound 1-088, reference compound]	267	less soluble	3.1 to 6.3 (≈ 7.53 to 15.3 µM)	3.1 to 6.3 (≈ 7.53 to 15.3 µM)	less active	
Cc1nocc1C(=O)N1CCN2C(=O)c3nccnc3CC12c1ccc(F)cc1 (stereo not drawn) [Compound 5, 5a-(4-fluorophenyl)-6-[(3-methyl-1,2-oxazol-4-yl)carbonyl]-5a,6,7,8-tetrahydroimidazo[1′,2′:1,6]pyrido[3,4-b]pyrazin-10(5H)-one]	27.6		> 100	> 100		
O=C(c1ccon1)N1CCN2C(=O)c3cccc(F)c3CC12c1ccc(Cl)cc1 (stereo not drawn) [Compound 1-086, reference compound]	175	less soluble	< 1.6	< 1.6	less active	
Cc1nocc1C(=O)N1CCN2C(=O)c3nccnc3C[C@]12c1ccc(Cl)cc1 (single isomer, unassigned) [Compound 1A]	5.2		50 to 100 (≈ 122 to 244 µM)	> 100		
Cc1cc([C@]23Cc4cccnc4C(=O)N2CCN3C(=O)c2conc2C)ccc1F (single isomer, unassigned) [Compound 6A]	7.7		50 to 100 (≈ 123 to 246 µM)	> 100		
O=C(c1ccno1)N1CCN2C(=O)c3ccccc3CC12c1ccc(Cl)cc1 (stereo not drawn) [Compound 1-025, reference compound]	1710	less soluble	3.1 to 6.3 (≈ 7.87 to 16 µM)	3.1 to 6.3 (≈ 7.87 to 16 µM)	less active	
Cc1nocc1C(=O)N1CCN2C(=O)c3ncccc3CC12c1ccc2c(c1)CCO2 (stereo not drawn) [Compound 14, 10a-(2,3-dihydro-1-benzofuran-5-yl)-1-[(3-methyl-1,2-oxazol-4-yl)carbonyl]-2,3,10,10a-tetrahydroimidazo[2,1-g][1,7]naphthyridin-5(1H)-one]	13.6		> 100	50 to 100 (≈ 120 to 240 µM)		
Cc1cc(C23Cc4cccnc4C(=O)N2CCN3C(=O)c2conc2C)ccc1F (stereo not drawn) [Compound 6, 10a-(4-fluoro-3-methylphenyl)-1-[(3-methyl-1,2-oxazol-4-yl)carbonyl]-2,3,10,10a-tetrahydroimidazo[2,1-g][1,7]naphthyridin-5(1H)-one]	6.4		25 to 50 (≈ 61.5 to 123 µM)	50 to 100 (≈ 123 to 246 µM)		
Cc1nocc1C(=O)N1CCN2C(=O)c3ncccc3C[C@@]12c1ccc(Cl)cc1 (single isomer, unassigned) [Compound 2B]	5000					
Cc1nocc1C(=O)N1CCN2C(=O)c3nccnc3CC12c1ccc(Cl)cc1 (stereo not drawn) [Compound 1, 5a-(4-chlorophenyl)-6-[(3-methyl-1,2-oxazol-4-yl)carbonyl]-5a,6,7,8-tetrahydroimidazo[1′,2′:1,6]pyrido[3,4-b]pyrazin-10(5H)-one]	6.3		50 to 100 (≈ 122 to 244 µM)	50 to 100 (≈ 122 to 244 µM)		

Second part, led by results:

EC50 (RSV A2) [nM]	solubility compared with the 3-substituted isoxazol-4-yls of the present invention [1]	solubility at 30 min [1, 2] [µg/mL]	solubility at 30 min [1, 3] [µg/mL]	SMILES	activity compared with the 3-substituted isoxazol-4-yls of the present invention (RSV A2)	drop in activity against the 3-substituted isoxazol-4-yl compound of example 4 (RSV A2; RSV A2 antiviral activity, compared with example 4)
7		50 to 100 (≈ 108 to 216 µM)	50 to 100 (≈ 108 to 216 µM)	O=C(c1conc1C(F)(F)F)N1CCN2C(=O)c3ncccc3CC12c1ccc(Cl)cc1 (stereo not drawn) [Compound 13, 10a-(4-chlorophenyl)-1-{[3-(trifluoromethyl)-1,2-oxazol-4-yl]carbonyl}-2,3,10,10a-tetrahydroimidazo[2,1-g][1,7]naphthyridin-5(1H)-one]		
30.5		> 100	> 100	Cc1nocc1C(=O)N1CCN2C(=O)c3nccnc3CC12c1ccc(F)c(F)c1 (stereo not drawn) [Compound 8, 5a-(3,4-difluorophenyl)-6-[(3-methyl-1,2-oxazol-4-yl)carbonyl]-5a,6,7,8-tetrahydroimidazo[1′,2′:1,6]pyrido[3,4-b]pyrazin-10(5H)-one]		
36.9		> 100	> 100	Cc1nocc1C(=O)N1CCN2C(=O)c3ncccc3CC12c1ccccc1Cl (stereo not drawn) [Compound 10, 10a-(2-chlorophenyl)-1-[(3-methyl-1,2-oxazol-4-yl)carbonyl]-2,3,10,10a-tetrahydroimidazo[2,1-g][1,7]naphthyridin-5(1H)-one]		
16.3		> 100	> 100	Cc1nocc1C(=O)N1CCN2C(=O)c3ncccc3C[C@]12c1ccc(F)cc1 (single isomer, unassigned) [Compound 4A]		
12.4		> 100	> 100	Cc1nocc1C(=O)N1CCN2C(=O)c3nccnc3C[C@]12c1ccc(F)cc1 (single isomer, unassigned) [Compound 5A]		
83.1		> 100	> 100	COc1ccc(C23Cc4cccnc4C(=O)N2CCN3C(=O)c2conc2C)cc1 (stereo not drawn) [Compound 3, 10a-(4-methoxyphenyl)-1-[(3-methyl-1,2-oxazol-4-yl)carbonyl]-2,3,10,10a-tetrahydroimidazo[2,1-g][1,7]naphthyridin-5(1H)-one]		
64.4		50 to 100 (≈ 120 to 240 µM)	> 100	Cc1nocc1C(=O)N1CCN2C(=O)c3ncccc3CC12C1CCC(F)(F)CC1 (stereo not drawn) [Compound 12, 10a-(4,4-difluorocyclohexyl)-1-[(3-methyl-1,2-oxazol-4-yl)carbonyl]-2,3,10,10a-tetrahydroimidazo[2,1-g][1,7]naphthyridin-5(1H)-one]		
70		> 100	> 100	Cc1nocc1C(=O)N1CCN2C(=O)c3ncccc3CC12C1CCCCC1 (stereo not drawn) [Compound 11, 10a-cyclohexyl-1-[(3-methyl-1,2-oxazol-4-yl)carbonyl]-2,3,10,10a-tetrahydroimidazo[2,1-g][1,7]naphthyridin-5(1H)-one]		
